According to EP3052475B1, “PHARMACEUTICAL USE OF 3-BENZYLSULFONYLPROPIONITRILE” (Olatec Therapeutics LLC, priority 2013, dated 2015):

What was measured:
[1] = tested on: arachidonic acid-induced ear swelling; experiment: topical arachidonic acid-induced ear swelling model in mice; format: in vivo, Male ICR mice; conditions: inhibition of ear swelling vs vehicle, measured at 90 minutes after arachidonic acid application; topical application 30 min before and 15 min after arachidonic acid; indomethacin 14 mM (0.1 mg/20 µL, n=5), test compound 375 mM (1.0 mg/20 µL, n=10); P <0.001
Procedure: 3-Benzylsulfonylpropionitrile, prepared from Example 1, was used in this experiment.
The test compound, indomethacin (positive control), and vehicle were evaluated for anti-inflammatory activity in a topical arachidonic acid-induced ear swelling model in mice.
Male ICR mice weighing 22 ± 2 g were used and randomly divided; the test compound and vehicle control had 10 mice, and indomethacin had 5 mice. Arachidonic Acid (0.5 mg in 20 µl of acetone:ethanol/1:1) was applied topically to the anterior and posterior surfaces of the right ear of each mice. Test substances and vehicle, as listed in Table 1 were similarly applied 30 min before and 15 min after arachidonic acid application. The thickness of the right ear and the left ear was measured and the difference calculated as an indication of the inflammation in the right ear. Ear swelling was measured by a Dyer model micrometer gauge at 60 and 90 minutes after arachidonic acid application as an index of inflammation. Percent inhibition was calculated according to the formula: Ic - It/Ic x 100, where Ic and It refers to increase of ear thickness (mm) in control and treated mice, respectively. ANOVA and Dunnett's test were employed to ascertain significant difference between vehicle control and treated groups. Significance is set at P<0.05 level.

[2] = tested on: tail flick reaction to heat; experiment: tail flick test in mice (49°C water bath); format: in vivo
Procedure: The tail flick test is a test of the pain response in animals. The tail flick test is used in basic pain research and to measure the effectiveness of analgesics, by observing the tail flick reaction to heat in an animal. This test assesses the nociceptive response to a local pain stimulus, and the ability of a drug to inhibit this response. […] The test compound was administered at a dosage of 500 mg/kg in DMSO. […] Each group had 10 mice. The response of mice to heat stimulus was evaluated by measuring the time of tail-flick or tail-flick latency from 49°C water bath. Briefly, the animal was held with its tail hanging down. Approximately 2 inches of the tail was immersed in a beaker of water at 38±1 °C for about 30 seconds, and this was done twice to acclimate the animal to the procedure. Subsequently, approximately 2 inches of the tail was immersed in a beaker of water at 49±1°C, at which point a timer was started. […] An ANOVA was done, and if p<0.05, a Dunnett's t test was employed to calculate significant difference between vehicle control and test compound treated groups. […] Results of tail flick response from each group are calculated as mean ± SEM (standard error of mean).

| SMILES | % Inhibition [1] [%] | tail flick latency compared with vehicle-treated mice ([2]; 500 mg/kg in DMSO, oral gavage, measured at 30, 60 and 120 minutes post dosing, n=10, significance p<0.05) | tail flick latency compared with vehicle-treated mice ([2]; mouse, in vivo) |
| --- | --- | --- | --- |
| N#CCCS(=O)(=O)Cc1ccccc1 [3-Benzylsulfonylpropionitrile, 3-benzylsulfonylpropionitrile] | 35 | statistically significant tail flick latency at 30, 60, and 120 minutes | – |
| CN1CC[C@]23c4c5ccc(O)c4O[C@H]2[C@@H](O)C=C[C@H]3[C@H]1C5 [morphine, reference compound] | – | – | statistically significant tail flick latency at 30 and 60 minutes, but not 120 minutes |
